# In US20170348375A1, “DISLODGEMENT AND RELEASE OF HSC FROM THE BONE MARROW STEM CELL NICHE USING ALPHA9 INTEGRIN ANTAGONISTS” (COMMONWEALTH SCIENTIFIC AND INDUSTRIAL RESEARCH ORGANISATION, priority 2014, published 2017):
# pIC50: −log10 of the molar value. Entries after “also recorded” stand apart in the source; their conditions may differ.
# Experiments:
# [1] = molecular target: T1, human integrin α4β1 (overexpressed in LN18 α4β1 cells; pMSCV-hITGA4-IRES-hITGB1) (Homo sapiens, UniProt P05556+P13612); experiment: Competitive inhibition of R-BC154 (50 nM) binding to LN18 α4β1 cells by BOP, flow cytometry
# T1 construct: expressed in transfected cells; host or cells: LN18 human glioblastoma cells (ATCC CRL-2610), retrovirally transduced with pMSCV-hITGA4-IRES-hITGB1
# Procedure: (§1) Stable LN18 cells over-expressing human integrin α4β1 and α9β1 were generated via retroviral transduction of human glioblastoma LN18 cell lines. Silencing of background α4 expression in parental and α9β1 transduced LN18 cells was achieved by retroviral vector delivery of α4 shRNA.
# (§2) (a) Chemical structure of α9β1/α4β1 integrin antagonist BOP (2). […] Data is mean±SEM (n=3) (d) Analysis of the WBC, (e) LSK and (f) LSKSLAM content in the peripheral blood of mice treated with BOP (10 mg/kg) over 90 mins. Data is mean±SEM (n=5 per time point).
# (§3) Flow cytometric analysis was performed using an LSR II (BD Biosciences) as previously described in J. Grassinger, et al Blood, 2009, 114, 49-59. […] For BM and PB analysis, up to 5×10^6 cells were analysed at a rate of 10-20 k cell events/sec. For analysis of PB LSKSLAM, up to 1×10^6 events were saved. Cell sorting was performed on a Cytopeia Influx (BD) as previously described in J. Grassinger, et al.
# (§4) Stable LN18 cells ((ATCC number: CRL-2610) over-expressing integrin α4β1 (LN18 α4β1) or α9β1 (LN18 α9β1)) were generated by retroviral transduction using the pMSCV-hITGA4-IRES-hITGB1 and pMSCV-hITGA9-IRES-hITGB1 vectors as previously described in J Grassinger, et al Blood, 2009, 114, 49-59 and were maintained in DMEM supplemented with 2 mM L-glutamate in 10% FBS. […]
# [2] = molecular target: T2, human integrin α9β1 (overexpressed in LN18 α9β1 cells, α4-silenced; pMSCV-hITGA9-IRES-hITGB1) (Homo sapiens, UniProt P05556+Q13797); experiment: Competitive inhibition of R-BC154 (50 nM) binding to LN18 α9β1 cells by BOP, flow cytometry
# T2 construct: expressed in transfected cells; host or cells: LN18 human glioblastoma cells (ATCC CRL-2610), retrovirally transduced with pMSCV-hITGA9-IRES-hITGB1, α4 silenced with pSM2c-shITGA4
# Procedure: as §1, §2, §3, §4
# α4β1 integrin = molecular target: T3, α4β1 integrin (Homo sapiens, UniProt P05556+P13612); experiment: Competitive inhibition of R-BC154 binding to α4β1 LN18 cells; details: 1 mM Ca2+/Mg2+
# T3 construct: expressed in transfected cells; host or cells: human glioblastoma LN18 (ATCC CRL-2610), retrovirally transduced
# Procedure: (§5) Cells were incubated for 90 min at 37° C., washed with PBS, pelleted by centrifugation and resuspended in PBS (200 μl) for flow cytometric analysis. % Max mean fluorescence intensity (MFI) was plotted against the log concentration of BOP and the data fitted to a ligand binding-sigmoidal dose-response curve and IC50 values obtained from graphs.
# α9β1 integrin = molecular target: T4, α9β1 integrin (Homo sapiens, UniProt P05556+Q13797); experiment: Competitive inhibition of R-BC154 binding to α9β1 LN18 cells; details: 1 mM Ca2+/Mg2+
# T4 construct: expressed in transfected cells; host or cells: human glioblastoma LN18 (ATCC CRL-2610), retrovirally transduced; α4 silenced with pSM2c-shITGA4
# Procedure: as §5
# [3] = system: α9β1 and α4β1 integrin binding on HSC and progenitors (LSK and LSKSLAM); experiment: Competitive displacement of R-BC154 binding to LSK and LSKSLAM cells; assay type: cell-based, mouse; details: 500 nM, 1 mM Ca2+/Mg2+
# Procedure: as §5
# [4] = system: WBC, LSK and LSKSLAM in PB; experiment: Mobilization of HSC and progenitors into peripheral blood; assay type: in vivo, mouse
# Procedure: For mobilization experiments, all mice received subcutaneous injections at 100 μl/10 gm body weight and PB was harvested by throat bleed using EDTA coated syringes.
# [5] = system: α4β1 and α9β1 integrins binding to VCAM-1 and Opn; details: in vitro; cited from earlier work
# α9β1 = α9β1 (Homo sapiens, UniProt P05556+Q13797); details: Pepinsky et al (2002) FIG. 4b; cited from earlier work
# Chain of α9β1 (Q13797 30-1035): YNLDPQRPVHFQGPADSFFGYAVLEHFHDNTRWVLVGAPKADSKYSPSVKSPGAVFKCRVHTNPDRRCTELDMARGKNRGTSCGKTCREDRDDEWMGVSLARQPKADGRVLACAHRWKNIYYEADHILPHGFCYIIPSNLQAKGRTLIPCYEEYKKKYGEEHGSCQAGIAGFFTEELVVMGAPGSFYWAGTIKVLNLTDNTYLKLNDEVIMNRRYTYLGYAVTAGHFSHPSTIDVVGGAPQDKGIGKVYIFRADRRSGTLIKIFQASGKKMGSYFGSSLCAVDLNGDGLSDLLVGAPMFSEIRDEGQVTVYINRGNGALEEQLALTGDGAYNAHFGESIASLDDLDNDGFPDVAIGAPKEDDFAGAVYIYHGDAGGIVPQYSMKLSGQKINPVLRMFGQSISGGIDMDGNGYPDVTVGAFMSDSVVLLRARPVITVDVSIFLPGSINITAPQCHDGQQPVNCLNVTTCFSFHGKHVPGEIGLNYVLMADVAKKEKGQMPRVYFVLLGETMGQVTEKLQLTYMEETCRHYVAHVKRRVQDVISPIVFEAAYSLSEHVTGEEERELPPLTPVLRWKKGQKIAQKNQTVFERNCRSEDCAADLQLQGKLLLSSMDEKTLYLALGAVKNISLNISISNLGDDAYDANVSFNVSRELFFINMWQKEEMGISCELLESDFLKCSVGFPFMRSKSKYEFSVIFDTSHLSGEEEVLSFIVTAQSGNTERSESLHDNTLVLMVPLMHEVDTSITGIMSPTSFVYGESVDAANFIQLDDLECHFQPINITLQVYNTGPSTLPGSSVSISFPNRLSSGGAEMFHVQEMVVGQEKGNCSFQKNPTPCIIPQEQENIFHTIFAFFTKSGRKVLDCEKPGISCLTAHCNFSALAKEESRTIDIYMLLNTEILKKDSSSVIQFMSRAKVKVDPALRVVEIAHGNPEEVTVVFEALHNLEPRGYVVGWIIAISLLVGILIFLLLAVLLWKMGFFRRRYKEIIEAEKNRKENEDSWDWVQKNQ
# Chain of α9β1 (P05556 21-798): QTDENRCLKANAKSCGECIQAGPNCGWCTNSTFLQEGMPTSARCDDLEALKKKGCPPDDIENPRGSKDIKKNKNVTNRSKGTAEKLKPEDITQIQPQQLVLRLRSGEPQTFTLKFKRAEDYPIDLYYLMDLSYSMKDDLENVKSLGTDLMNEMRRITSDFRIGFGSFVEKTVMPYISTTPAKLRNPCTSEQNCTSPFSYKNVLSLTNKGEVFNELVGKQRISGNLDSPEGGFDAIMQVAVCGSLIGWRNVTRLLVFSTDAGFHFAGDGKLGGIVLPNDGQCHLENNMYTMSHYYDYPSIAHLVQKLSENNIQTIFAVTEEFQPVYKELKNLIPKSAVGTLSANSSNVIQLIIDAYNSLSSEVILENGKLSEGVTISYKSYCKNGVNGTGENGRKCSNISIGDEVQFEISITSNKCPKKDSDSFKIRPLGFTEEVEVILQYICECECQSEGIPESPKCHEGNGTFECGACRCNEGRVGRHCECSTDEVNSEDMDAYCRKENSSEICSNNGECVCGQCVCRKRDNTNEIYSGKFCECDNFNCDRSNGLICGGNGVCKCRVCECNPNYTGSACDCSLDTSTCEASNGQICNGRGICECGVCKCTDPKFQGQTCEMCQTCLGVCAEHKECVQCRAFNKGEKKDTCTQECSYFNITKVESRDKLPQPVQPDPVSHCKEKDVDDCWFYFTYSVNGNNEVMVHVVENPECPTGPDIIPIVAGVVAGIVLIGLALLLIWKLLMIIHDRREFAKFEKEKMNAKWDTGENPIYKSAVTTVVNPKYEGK
# T3 sequence (P13612 34-1032): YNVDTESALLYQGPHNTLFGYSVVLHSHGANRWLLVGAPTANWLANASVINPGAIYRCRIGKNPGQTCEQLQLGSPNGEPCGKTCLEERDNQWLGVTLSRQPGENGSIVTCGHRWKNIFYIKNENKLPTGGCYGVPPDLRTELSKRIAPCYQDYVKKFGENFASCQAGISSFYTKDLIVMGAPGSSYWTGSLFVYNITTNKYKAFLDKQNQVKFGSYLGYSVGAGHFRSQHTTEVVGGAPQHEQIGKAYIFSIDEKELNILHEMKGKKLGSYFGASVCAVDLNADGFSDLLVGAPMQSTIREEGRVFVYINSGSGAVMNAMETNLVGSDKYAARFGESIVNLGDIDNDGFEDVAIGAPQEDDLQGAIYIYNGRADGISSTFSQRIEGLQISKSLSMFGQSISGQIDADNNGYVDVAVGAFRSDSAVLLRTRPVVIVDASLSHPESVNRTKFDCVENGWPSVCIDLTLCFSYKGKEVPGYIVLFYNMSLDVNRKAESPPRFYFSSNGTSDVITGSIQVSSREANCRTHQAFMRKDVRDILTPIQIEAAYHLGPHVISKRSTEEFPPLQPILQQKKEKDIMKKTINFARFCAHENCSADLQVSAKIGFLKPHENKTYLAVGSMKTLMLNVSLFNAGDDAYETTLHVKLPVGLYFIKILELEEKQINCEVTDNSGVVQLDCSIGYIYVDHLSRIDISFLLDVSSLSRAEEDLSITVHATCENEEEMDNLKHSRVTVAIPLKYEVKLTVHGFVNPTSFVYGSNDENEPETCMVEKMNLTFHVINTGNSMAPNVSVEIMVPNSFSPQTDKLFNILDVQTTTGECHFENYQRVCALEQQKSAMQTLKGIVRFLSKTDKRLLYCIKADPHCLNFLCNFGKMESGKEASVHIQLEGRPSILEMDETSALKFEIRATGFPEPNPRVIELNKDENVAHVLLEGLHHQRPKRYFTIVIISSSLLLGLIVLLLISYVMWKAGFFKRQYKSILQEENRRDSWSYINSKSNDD
# T3 sequence (P05556 21-798): as the sequence (P05556 21-798) above
# T1 sequence (P13612 34-1032): as the sequence (P13612 34-1032) above
# T1 sequence (P05556 21-798): as the sequence (P05556 21-798) above
# T4 sequence (Q13797 30-1035): as the sequence (Q13797 30-1035) above
# T4 sequence (P05556 21-798): as the sequence (P05556 21-798) above
# T2 sequence (Q13797 30-1035): as the sequence (Q13797 30-1035) above
# T2 sequence (P05556 21-798): as the sequence (P05556 21-798) above
SMILES,pIC50 [1],pIC50 [2],inhibition of α4β1 integrin (competitive inhibition of R-BC154 binding) (α4β1 integrin),inhibition of α9β1 integrin (competitive inhibition of R-BC154 binding) (α9β1 integrin),inhibition of α9β1 and α4β1 integrin binding on HSC and progenitors (displacement of R-BC154) [3],"PB WBC, LSK and LSKSLAM compared to the saline control ([4]; 10 mg/kg, C57BL/6 mice, up to 90 mins)",mobilization of HSC with long-term multi-lineage engraftment potential ([4]; summary statement),inhibition of binding of α4β1 and α9β1 integrins to VCAM-1 and Opn [5],off-rates for α9β1 compared to α4β1 (α9β1)
"O=C(O)[C@H](Cc1ccc(OC(=O)N2CCCC2)cc1)NC(=O)[C@@H]1CCCN1S(=O)(=O)c1ccccc1 [BOP (2), N-(Benzenesulfonyl)-L-prolyl-L-O-(1-pyrrolidinylcarbonyl)tyrosine]",8.62,8.58,–,–,–,–,–,–,–
"O=C(O)[C@H](Cc1ccc(OC(=O)N2CCCC2)cc1)NC(=O)[C@@H]1CCCN1S(=O)(=O)c1ccccc1 [BOP, N-(Benzenesulfonyl)-L-prolyl-L-O-(1-pyrrolidinylcarbonyl)tyrosine]",–,–,potent inhibitor,potent inhibitor,effectively inhibited,significant increases,effectively and rapidly mobilized,nanomolar inhibitory potencies; also recorded: can inhibit,significantly reduced off-rates
